According to US20140248361A1, “HERBAL EXTRACT COMPOSITION AND A PROCESS THEREOF” (PRASAN SOLUTIONS (INDIA) PVT LTD, priority 2012, published 2014):

Legend:
[1] = Effect of particle size on antioxidant activity (Rancimat induction time) in sunflower oil; settings: 200 ppm in sunflower oil; Rancimat 100° C.
Method: (§2) Effect of particle size analysis on antioxidant activity is analysed with the help of Rancimat (Metrohm 743) which gives oxidative stability index based on the induction time (h). Rancimat analysis is carried out at two different temperature in order to set relationship between induction time and temperature of the studies.
(§3) In this, we have analyzed the particle size of samples with the help of Particle Size Analyzer (Microtrac, S3500) and its antioxidant activity with the help of Rancimat (Metrohm 743).

[2] = Para-anisidine value of palm oil on storage
Method: (§4) The shelf life of oil is studied by carrying out chemical analysis, which include studying peroxide value (represents extent of primary oxidation), Para-anisidine value (represents extent of secondary oxidation) and totox value (reflects total oxidation of oil). These parameters are determined for 1 kg of untreated oil and treated oil at every 15 days interval for samples stored at ambient temperature and at every 7 days interval for samples stored at 50° C. The treated oil being, the oil upon addition of 200 ppm of TBHQ (sample-A), 200 ppm of BHA (sample-B), 200 ppm and 500 ppm of pulverized green tea extract with 90% polyphenol (sample-C), 200 ppm and 500 ppm of rosemary extract (sample-D), 200 ppm and 500 ppm of green tea extract after cryogenic grinding (sample-E), 200 ppm and 500 ppm of crude green tea extract (sample-F) and PRESOL at 200 ppm and 500 ppm. The untreated oil is the control sample without any antioxidant.
(§5) The threshold limit for per oxide value under which oil can be used for safe consumption is 10 meq of O2/Kg oil. Similarly, the threshold limit of para-anisidine value and Totox value is 10 and 30, respectively.

[3] = Estimation of shelf life of palm oil (Rancimat temperature extrapolation); settings: 200 ppm
Method: (§6) This is an aid for estimating the shelf life of oils and fats. The extrapolation makes use of the relationship between the measured induction time and the temperature given by van't Hoff's law. Several measurements are made at different temperatures and then extrapolated to the storage temperature. The values so obtained allow estimation of the storage stability of the oil or fat containing PRESOL.
(§7) The shelf life is calculated using Rancimat shelf life calculator.

[4] = Estimation of shelf life of sunflower oil (Rancimat temperature extrapolation); settings: 200 ppm
Method: as §6, §7

[5] = Frying cycle analysis of palm oil (total polar compounds)
Method: (§1) Palm oil and sunflower oil with antioxidants added to it are obtained from a local refinery. Frying studies are carried out with control oil and by adding TBHQ (Sample A), BHA (Sample B), GT Pulverized (Sample C), ROS (Sample D), GT Cryo grinded (Sample E), GT Crude Extract (Sample F) and PRESOL, respectively to the oils. Experiments are carried out a concentration of 200 ppm and 500 ppm. Fresh potatoes of less reduced sugar content variety are used throughout the experiment which is purchased form a local supermarket. Oil samples are withdrawn from the fryer at the end of every day and stored at −4° C. until it is tested for quality parameters viz, total polar compounds. Polar compounds present in oil and fats are measured by column chromatography using standard method, ES ISO 8420:2012.

[6] = Synergism of TBHQ and PRESOL combination (Rancimat) in palm oil
Method: Synergism of TBHQ and PRESOL is analyzed in palm oil. If the frying industry is considered, synthetic antioxidant TBHQ is being added to the oils. […] In order to overcome this limitation, TBHQ is fortified with PRESOL and added to vegetable oils in order to increase the frying cycles which ultimately increases the shelf life of end products. […] The below table 25 illustrates all the combination of fortification of TBHQ and PRESOL used in palm oil to illustrate maximum activity of fortified combination. Synergism is calculated based on the below equation: [formula]

[7] = Frying cycle analysis of sunflower oil (total polar compounds)
Method: as §1

[8] = Oil stability index (Rancimat) of sunflower oil; settings: 200 ppm
Method: (§8) As used herein, ‘Oil Stability Index (OSI)’ is an American Oil Chemists Society (AOCS) approved method that determines the relative resistance of fat and oil samples to oxidation, which is defined by the following equation—
(§9) The oil stability index is determined using the Metrohm's Rancimat (Metrohm 743 Rancimat).
4.0 g of sunflower oil is weighed into the reaction vessel. The reaction vessel filled with oil is placed in a heating block. The temperature of the block is maintained at 80° C., 100° C. and 120° C., respectively. The oil is heated at the said temperatures, followed by passing air at a flow rate of 20 L/h. Flowing of air through the oil produces peroxides during primary oxidation and organic acids having low molecular weight, aldehydes and ketones with typical rancid odor during the secondary oxidation phase. These compounds are conveyed by the air flow into measurement vessel containing distilled water where conductivity is being checked continuously by sensor.

[9] = Oil stability index (Rancimat) of palm oil; settings: 200 ppm
Method: as §8, §9
4.0 g of palm oil is weighed into the reaction vessel. The reaction vessel filled with oil is placed in a heating block. The temperature of the block is maintained at 100° C., 120° C. and 140° C., respectively. The oil is heated at the said temperatures, followed by passing air at a flow rate of 20 L/h. Flowing of air through the oil produces peroxides during primary oxidation and organic acids having low molecular weight, aldehydes and ketones with typical rancid odor during the secondary oxidation phase. These compounds are conveyed by the air flow into measurement vessel containing distilled water where conductivity is being checked continuously by sensor.

[10] = Totox value of palm oil on storage; settings: ambient temperature
Method: as §4, §5

Shelf life of canola oil = settings: 200 ppm
Method: D. Determination of Shelf Life of Canola Oil in the Presence of PRESOL • Shelf life of canola oil is analyzed upon adding 200 ppm of TBHQ (sample-A), BHA (sample-B), green tea extract with 90% polyphenol (sample-C), rosemary extract (sample-D), green tea extract after cryogenic grinding (sample-E), and PRESOL, respectively to canola oil.

[11] = Peroxide value of palm oil on storage
Method: as §4, §5

[12] = Effect of particle size on antioxidant activity (Rancimat induction time) in palm oil; settings: 200 ppm in palm oil; Rancimat 120° C.
Method: as §2, §3

[13] = ambient temperature, day 0, 200 ppm
[14] = ambient temperature, day 15, 200 ppm
[15] = ambient temperature, day 30, 200 ppm
[16] = ambient temperature, day 45, 200 ppm
[17] = ambient temperature, day 60, 200 ppm
[18] = ambient temperature, day 75, 200 ppm
[19] = ambient temperature, day 90, 200 ppm
[20] = ambient temperature, day 105, 200 ppm
[21] = ambient temperature, day 120, 200 ppm
[22] = ambient temperature, day 135, 200 ppm
[23] = ambient temperature, day 150, 200 ppm
[24] = ambient temperature, day 165, 200 ppm
[25] = ambient temperature, day 180, 200 ppm

CC(C)(C)c1cc(O)ccc1O [Sample A, tertiary butyl hydroquinone]
Induction Period (h) of SFO 100° C. [1]: 26.82 h | Para-anisidine value ([2]; 50° C., day 0, 200 ppm): 2.69 | Para-anisidine value ([2]; 50° C., day 7, 200 ppm): 3.062 | Para-anisidine value ([2]; 50° C., day 15, 200 ppm): 3.296 | Para-anisidine value ([2]; 50° C., day 22, 200 ppm): 3.395 | Para-anisidine value ([2]; 50° C., day 30, 200 ppm): 3.74 | Para-anisidine value ([2]; 50° C., day 37, 200 ppm): 4.052 | Para-anisidine value ([2]; 50° C., day 45, 200 ppm): 4.209 | Para-anisidine value ([2]; 50° C., day 52, 200 ppm): 4.685 | Para-anisidine value ([2]; 50° C., day 60, 200 ppm): 5.091 | Para-anisidine value ([2]; 50° C., day 67, 200 ppm): 5.208 | Para-anisidine value ([2]; 50° C., day 75, 200 ppm): 5.514 | Para-anisidine value ([2]; 50° C., day 82, 200 ppm): 5.601 | Para-anisidine value ([2]; 50° C., day 90, 200 ppm): 5.827 | Para-anisidine value [2, 13]: 2.566 | Para-anisidine value [2, 14]: 3.062 | Para-anisidine value [2, 15]: 3.045 | Para-anisidine value [2, 16]: 3.113 | Para-anisidine value [2, 17]: 2.615 | Para-anisidine value [2, 18]: 2.731 | Para-anisidine value [2, 19]: 2.772 | Para-anisidine value [2, 20]: 3.217 | Para-anisidine value [2, 21]: 3.303 | Para-anisidine value [2, 22]: 3.438 | Para-anisidine value [2, 23]: 3.473 | Para-anisidine value [2, 24]: 3.639 | Para-anisidine value [2, 25]: 3.808 | Shelf Life (days) at 30° C. [3]: 617.0 days | Shelf Life (days) at 30° C. [4]: 171.0 days | frying cycle after which threshold limit for total polar compounds is crossed ([5]; palm oil): 40 cycle | Number of batches fried ([5]; palm oil (PO), potato chips, 200 ppm): 40 batches | Increase in OSI (%) ([6]; 50 ppm alone): 5.12% | Induction Time (H) at 120 C. ([6]; 50 ppm alone): 9.57 H | OSI ([6]; 50 ppm alone): 1.054 | increase in induction time as compared to control (X-C) ([6]; 50 ppm alone): 0.49 | Increase in OSI (%) ([6]; 100 ppm alone): 17.53% | Induction Time (H) at 120 C. ([6]; 100 ppm alone): 11.01 H | OSI ([6]; 100 ppm alone): 1.21 | increase in induction time as compared to control (X-C) ([6]; 100 ppm alone): 1.93 | Increase in OSI (%) ([6]; 200 ppm alone): 36.24% | Induction Time (H) at 120 C. ([6]; 200 ppm alone): 14.24 H | OSI ([6]; 200 ppm alone): 1.57 | increase in induction time as compared to control (X-C) ([6]; 200 ppm alone): 5.16 | Total Polar compounds of sunflower oil ([7]; 200 ppm, frying cycle 0): 3.746 | Total Polar compounds of sunflower oil ([7]; 200 ppm, frying cycle 8): 6.375 | Total Polar compounds of sunflower oil ([7]; 200 ppm, frying cycle 16): 13.632 | Total Polar compounds of sunflower oil ([7]; 200 ppm, frying cycle 24): 18.505 | Total Polar compounds of sunflower oil ([7]; 200 ppm, frying cycle 32): 23.123 | Total Polar compounds of sunflower oil ([7]; 200 ppm, frying cycle 40): 28.648 | frying cycle after which threshold limit for total polar compounds is crossed ([7]; sunflower oil): 40 cycle | Number of batches fried ([7]; sunflower oil (SFO), potato chips, 200 ppm): 40 batches | Induction Time ([8]; 80° C.): 109.76 h | Oxidative Stability Index (OSI) ([8]; 80° C.): 3.01 | Induction Time ([8]; 100° C.): 26.82 h | Oxidative Stability Index (OSI) ([8]; 100° C.): 2.88 | Induction Time ([8]; 120° C.): 6.13 h | Oxidative Stability Index (OSI) ([8]; 120° C.): 2.61 | Induction Time ([9]; 100° C.): 95.76 h | Oxidative Stability Index (OSI) ([9]; 100° C.): 2.30 | Induction Time ([9]; 120° C.): 20.93 h | Oxidative Stability Index (OSI) ([9]; 120° C.): 2.17 | Induction Time ([9]; 140° C.): 5.26 h | Oxidative Stability Index (OSI) ([9]; 140° C.): 2.15 | Totox value ([10]; day 0, 200 ppm): 3.497 | Totox value ([10]; day 15, 200 ppm): 4.585 | Totox value ([10]; day 30, 200 ppm): 5.879 | Totox value ([10]; day 45, 200 ppm): 6.228 | Totox value ([10]; day 60, 200 ppm): 6.157 | Totox value ([10]; day 75, 200 ppm): 6.441 | Totox value ([10]; day 90, 200 ppm): 6.400 | Totox value ([10]; day 105, 200 ppm): 6.976 | Totox value ([10]; day 120, 200 ppm): 7.122 | Totox value ([10]; day 135, 200 ppm): 7.339 | Totox value ([10]; day 150, 200 ppm): 7.916 | Totox value ([10]; day 165, 200 ppm): 8.258 | Totox value ([10]; day 180, 200 ppm): 8.614 | Shelf Life (No. Of Days) (Shelf life of canola oil): 181 days | Peroxide value ([11]; 50° C., day 0, 200 ppm): 0.482 | Peroxide value ([11]; 50° C., day 7, 200 ppm): 1.309 | Peroxide value ([11]; 50° C., day 15, 200 ppm): 1.836 | Peroxide value ([11]; 50° C., day 22, 200 ppm): 1.887 | Peroxide value ([11]; 50° C., day 30, 200 ppm): 2.005 | Peroxide value ([11]; 50° C., day 37, 200 ppm): 3.074 | Peroxide value ([11]; 50° C., day 45, 200 ppm): 3.686 | Peroxide value ([11]; 50° C., day 52, 200 ppm): 4.102 | Peroxide value ([11]; 50° C., day 60, 200 ppm): 4.491 | Peroxide value ([11]; 50° C., day 67, 200 ppm): 4.75 | Peroxide value ([11]; 50° C., day 75, 200 ppm): 4.893 | Peroxide value ([11]; 50° C., day 82, 200 ppm): 5.209 | Peroxide value ([11]; 50° C., day 90, 200 ppm): 5.395 | Peroxide value [11, 13]: 0.465 | Peroxide value [11, 14]: 0.762 | Peroxide value [11, 15]: 1.417 | Peroxide value [11, 16]: 1.558 | Peroxide value [11, 17]: 1.771 | Peroxide value [11, 18]: 1.855 | Peroxide value [11, 19]: 1.814 | Peroxide value [11, 20]: 1.88 | Peroxide value [11, 21]: 1.91 | Peroxide value [11, 22]: 1.951 | Peroxide value [11, 23]: 2.222 | Peroxide value [11, 24]: 2.31 | Peroxide value [11, 25]: 2.403 | Induction Period (h) of PO at 120° C. [12]: 20.93 h
